The structures appear in SMILES notation.

A word on the IC50: it is the concentration at which inhibition is half-maximal.

Experiment [1] concerns the target T1, c-Met (Homo sapiens, UniProt P08581).
T1 construct: recombinant kinase domain of c-Met
Description: biochemical. As to conditions: read-out: IC50 (nM) in c-Met enzyme assay.

Experiment [2] has as its target T1, c-Met. Description: HTRF c-Met kinase assay; also radiometric kinase panel (Met activity -2 at […]). As to conditions: read-out: IC50 (nM) in c-Met enzyme assay. It is filed as biochemical. A general note: TR-FRET usually uses a lanthanide donor and a delayed reading to cut background.

T1 sequence (P08581 956-1390 limits assumed): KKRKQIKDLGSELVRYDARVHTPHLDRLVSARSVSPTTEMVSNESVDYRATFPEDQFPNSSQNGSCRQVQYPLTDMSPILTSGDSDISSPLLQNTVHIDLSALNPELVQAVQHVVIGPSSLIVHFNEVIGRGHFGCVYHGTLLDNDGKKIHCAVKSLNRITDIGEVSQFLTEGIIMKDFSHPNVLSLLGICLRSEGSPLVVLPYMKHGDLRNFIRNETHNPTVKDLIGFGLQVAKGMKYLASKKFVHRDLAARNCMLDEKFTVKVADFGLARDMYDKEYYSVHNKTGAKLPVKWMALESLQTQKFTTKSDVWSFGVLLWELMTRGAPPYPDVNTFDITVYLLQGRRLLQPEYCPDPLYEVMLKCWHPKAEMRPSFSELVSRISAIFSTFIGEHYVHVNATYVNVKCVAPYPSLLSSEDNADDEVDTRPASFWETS

For `Cn1cc(-c2cnc3nnn(CC4CNc5ncccc5O4)c3n2)c2ccccc21` (centres unmarked) [KRC-00509], at c-Met [1], the IC50 was 6.3 nM.

On to `FC(F)(F)c1cc(-c2cnc3nnn(CC4CNc5ncccc5O4)c3n2)ccc1OCCN1CCOCC1` (centres unmarked) [KRC-00715], for which, on c-Met [2], the IC50 was 9 nM.

Values taken from publication PMC4722623, “Novel c-Met inhibitor suppresses the growth of c-Met-addicted gastric cancer cells” (BMC Cancer, 2016).
